Marks after values point to notes of the source that are not given here.
Assays:
Aspergillus brasiliensis = Aspergillus brasiliensis Germ Count Reduction Test; type: cell-based; conditions: use-concentration (0.50% Composition 1; 0.0025% amine; 0.0050% butyl-BIT; 0.50% phenoxyethanol), initial count approx. 10^7 cfu/ml; for semi-quantitative assessment of the microbial growth of the streaks, Contact time [h] 1: contact time 1 h; for semi-quantitative assessment of the microbial growth of the streaks, Contact time [h] 3: contact time 3 h; for semi-quantitative assessment of the microbial growth of the streaks, Contact time [h] 6: contact time 6 h; for semi-quantitative assessment of the microbial growth of the streaks, Contact time [h] 24: contact time 24 h
Description: (§1) Dilutions of the samples are prepared with sterile tap water. 25 ml portions of the end solutions are inoculated with 0.1 ml microorganism suspension (initial microorganism count approx. 10^7 cfu/ml) and stirred.
For testing the reduction with Aspergillus brasiliensis the solutions are streaked out onto Sabouraud-dextrose 4% agar after 1, 3, 6 and 24 hours.
(§2) The cultures are incubated for 48 hours at 37° C., except for Aspergillus brasiliensis, which is incubated for 72 hours at 25-27° C. The evaluation is made on the basis of semi-quantitative assessment of the microbial growth of the streaks.

Staphylococcus aureus = Staphylococcus aureus Germ Count Reduction Test; type: cell-based; conditions: use-concentration (0.50% Composition 1; 0.0025% amine; 0.0050% butyl-BIT; 0.50% phenoxyethanol), initial count approx. 10^7 cfu/ml; for semi-quantitative assessment of the microbial growth of the streaks, Contact time [min] 2: contact time 2 min; for semi-quantitative assessment of the microbial growth of the streaks, Contact time [min] 5: contact time 5 min; for semi-quantitative assessment of the microbial growth of the streaks, Contact time [min] 10: contact time 10 min; for semi-quantitative assessment of the microbial growth of the streaks, Contact time [min] 60: contact time 60 min
Description: as §1
For the reduction test with Staphylococcus aureus the solutions are streaked out onto tryptone soya agar after 2,5,10 and 60 minutes.
as §2

Structure (SMILES) | semi-quantitative assessment of the microbial growth of the streaks, Contact time [h] 1 (Aspergillus brasiliensis) | semi-quantitative assessment of the microbial growth of the streaks, Contact time [h] 3 (Aspergillus brasiliensis) | semi-quantitative assessment of the microbial growth of the streaks, Contact time [h] 6 (Aspergillus brasiliensis) | semi-quantitative assessment of the microbial growth of the streaks, Contact time [h] 24 (Aspergillus brasiliensis) | semi-quantitative assessment of the microbial growth of the streaks, Contact time [min] 2 (Staphylococcus aureus) | semi-quantitative assessment of the microbial growth of the streaks, Contact time [min] 5 (Staphylococcus aureus) | semi-quantitative assessment of the microbial growth of the streaks, Contact time [min] 10 (Staphylococcus aureus) | semi-quantitative assessment of the microbial growth of the streaks, Contact time [min] 60 (Staphylococcus aureus)
CCCCn1sc2ccccc2c1=O [2-butyl-1,2-benzisothiazolin-3-one] | ++++ (= massive growth approx. 10^5) | ++++ (= massive growth approx. 10^5) | ++++ (= massive growth approx. 10^5) | ++++ (= massive growth approx. 10^5) | ++++ (= massive growth approx. 10^5) | ++++ (= massive growth approx. 10^5) | ++++ (= massive growth approx. 10^5) | +++ (= heavy growth approx. 10^4)
CCCCCCCCCCCCN(CCCN)CCCN [N,N bis(3-aminopropyl)-dodecylamine] | C (= surface covered approx. 10^6) | C (= surface covered approx. 10^6) | ++++ (= massive growth approx. 10^5) | ++++ (= massive growth approx. 10^5) | +++ (= heavy growth approx. 10^4) | ++ (= moderate growth approx. 10^3) | ++ (= moderate growth approx. 10^3) | − (= no growth <100)

Reference: patent publication US11399541B2, “Storage-stable microbicidal concentrates and use thereof as preservatives” (Vink Chemicals GmbH & Co. KG, priority 2017, dated 2022)
